Reference: US20240318218A1 (The Trustees of Columbia University in The City of New York, priority 2023, published 2024)

Target: T1, human NADK (ATP-NAD+ kinase), recombinant, C-terminal 6x-histidine tag (Homo sapiens, UniProt O95544)
T1 construct: 6x-histidine (C); made in house; host or cells: E. coli BL21(DE3)
T1 sequence (O95544 1-446): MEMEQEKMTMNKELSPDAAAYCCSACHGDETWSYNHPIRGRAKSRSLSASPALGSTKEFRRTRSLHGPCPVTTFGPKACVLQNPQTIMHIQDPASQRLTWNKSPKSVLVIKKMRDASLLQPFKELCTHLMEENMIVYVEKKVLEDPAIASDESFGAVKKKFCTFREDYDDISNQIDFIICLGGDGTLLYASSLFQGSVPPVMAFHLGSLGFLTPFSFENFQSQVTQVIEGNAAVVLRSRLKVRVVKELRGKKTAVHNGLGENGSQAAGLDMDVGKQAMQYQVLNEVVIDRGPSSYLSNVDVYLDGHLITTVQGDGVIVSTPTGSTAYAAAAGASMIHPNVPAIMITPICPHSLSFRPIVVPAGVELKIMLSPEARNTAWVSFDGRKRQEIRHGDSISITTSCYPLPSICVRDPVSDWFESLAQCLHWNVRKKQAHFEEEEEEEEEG
Experiment: Affinity of human NADK for NAD+ compared with pigeon, duck and cat NADK
Assay type: biochemical
Conditions: human NADK relative to pigeon
Method: Recombinantly-expressed NADKs were explored for their reversible activities. It was hypothesized that the reversibility of the pigeon enzyme would enable compensation for the high picolinic acid […] (PC) activity present in pigeon livers, which inhibits NAD^+ biosynthesis from dietary tryptophan. […] It was determined that human NADK has an affinity for NAD^+ that is about 600 times higher than the pigeon, duck and cat isoforms. Without wishing to be bound by theory, NAD^+ serves as a product inhibitor for the reverse human NADK activity, which accounts for the observed irreversible behavior. While each of the NADKs explored were “reversible,” the reverse activity of the human enzyme is impeded via product inhibition. […]
Referring now to FIGS. 3A-3B, initial rate kinetic experiments were performed with pigeon, duck, cat, and human NADK enzymes in both the forward and reverse directions. […] In FIG. 3B, the production of ATP was detected in a coupled reaction with firefly luciferase where ATP was converted to light, the relative luminescence (RLU) was monitored, and a standard curve was used to calculate the ATP concentration.

affinity for NAD^+, times higher than the pigeon, duck and cat isoforms: about 600 times
SMILES: NC(=O)c1ccc[n+]([C@@H]2O[C@H](COP(=O)([O-])OP(=O)(O)OC[C@H]3O[C@@H](n4cnc5c(N)ncnc54)[C@H](O)[C@@H]3O)[C@@H](O)[C@H]2O)c1 [NAD]
